According to paper PMC9736275 (International Journal of Molecular Sciences, 2022):

Target: T1, ATA-Gze (Fusarium graminearum, UniProt I1RDQ2)
T1 construct: gene FGRAMPH1_01T04291
T1 sequence (I1RDQ2 1-325): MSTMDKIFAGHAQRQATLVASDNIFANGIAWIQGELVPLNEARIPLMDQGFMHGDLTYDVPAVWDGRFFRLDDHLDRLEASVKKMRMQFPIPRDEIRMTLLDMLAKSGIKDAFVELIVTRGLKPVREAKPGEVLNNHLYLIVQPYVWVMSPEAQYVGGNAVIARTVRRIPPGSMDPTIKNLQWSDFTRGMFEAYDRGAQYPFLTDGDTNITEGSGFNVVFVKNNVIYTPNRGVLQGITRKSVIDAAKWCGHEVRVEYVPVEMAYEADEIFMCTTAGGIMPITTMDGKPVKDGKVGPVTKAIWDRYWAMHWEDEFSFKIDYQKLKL

`C[C@@H](N)c1ccccc1` [(R)-1-phenylethylamine] was tested, and the Km was “The kinetic parameters are shown in Table S3 and Figure S1”.
